Test results as given in patent US9359395B2, “Prodrugs of steroidal CYP17 inhibitors/antiandrogens” (Tokai Pharmaceuticals, Inc., priority 2009, dated 2016).

Tests used:
AR = conditions: cited from earlier work
[1] = mice, cited from earlier work; for detectability in plasma at 8 hours / peak plasma levels: s.c. 50 mg/kg
[2] = system: androgen-dependent LAPC4 human prostate tumor xenograft; conditions: cited from earlier work; for inhibiting the growth of LAPC4 xenograft: in vivo
[3] = Oral bioavailability in rats; conditions: rat, in vivo, initial studies

Compound: C[C@]12CCC(=O)C=C1CCC1C2CC[C@]2(C)C(n3cnc4ccccc43)=CCC12 (stereo partly drawn) [Compound 6, 17-(1H-benzimidazole-1-yl)androsta-4,16-diene-3-one]
- AR antagonist activity (AR): potent pure AR antagonists
- detectability in plasma at 8 hours [1]: neither was detectable
- peak plasma levels [1]: 5.15 ng/mL
- inhibiting the growth of LAPC4 xenograft [2]: ineffective

Compound: C[C@]12CC[C@H](O)CC1=CCC1C2CC[C@]2(C)C(n3cnc4ccccc43)=CCC12 (stereo partly drawn) [Compound 5, 3-β-hydroxy-17-(1H-benzimidazole-1-yl)androsta-5,16-diene]
- bioavailability [3]: ~10%
- AR antagonist activity (AR): potent pure AR antagonists
- detectability in plasma at 8 hours [1]: neither was detectable
- peak plasma levels [1]: 16.82 ng/mL
- conversion into metabolite ([1]; metabolite tentatively identified as 17-(1H-benzimidazol-1-yl)androsta-3-one): rapidly converted into a metabolite
- reduction in the mean final tumor volume compared with controls ([2]; 50 mg/kg, twice daily, P=0.00065): 93.8%
- efficacy compared with castration ([2]; 50 mg/kg, twice daily): significantly more effective than castration
- inhibiting the growth of LAPC4 xenograft [2]: very effective
